In brackets after ≈: the same amount, converted by molar mass.
Assays:
[1] = system: HepG-2 cancer cell line; assay: Cytotoxic activity (MTT assay); assay type: cell-based
Description: (§1) The HPLC was performed in the Institute for Plant Biology, TU Braunschweig, using a Young Lin quaternary pump, vacuum degasser, column oven (40 °C), diode array detector (YL9160 PDA), and a Midas Spark Holland autosampler. UV spectra (λ max) were measured in the central laboratory of the Faculty of Pharmaceutical Science at Mansoura University using spectroscopic methanol with an ultraviolet-visible spectrophotometer (Shimadzu 1601 PC, version TCC-240A, Kyoto, Japan). The NMR unit of Mansoura University’s Faculty of Pharmacy obtained nuclear magnetic resonance spectra (^1H-NMR, ^13C-NMR, DEPT-Q, APT, HSQC, and HMBC) using a Bruker DRX 600 NMR spectrometer (600 and 150 MHz for ^1H and ^13C-NMR, respectively) and with the Bruker Corporation Avance III 400 spectrometer, which measures ^1H and ^13C-NMR at 400 and 100 MHz, respectively. The types of solvents that are used are CDCl3, CD3OD, and DMSO-d6. For normal phase chromatography, silica gel G 60–230 mesh (Merck, Darmstadt, Germany) was packed using a wet or dry method in the specified solvent. The purchase of Normal Human lung fibroblast (WI-38), hepatic cancer cell lines (HePG-2), and mammary gland (MCF-7) cell lines from ATCC was made possible by the Holding firm for biological goods and vaccines (VACSERA), which is based in Cairo, Egypt.
(§2) Using the MTT test, the inhibitory effects of substances on cell growth were ascertained using the cell lines compared to normal lung fibroblast cells (WI-38). The selectivity index was calculated via the Selectivity index (SI) equation: SI equals IC50 normal/IC50 cancer.

[2] = system: MCF-7 cancer cell line; assay: Cytotoxic activity (MTT assay); assay type: cell-based
Description: as §1, §2

[3] = system: IL-1β; assay: IL-1β in rat paw tissue homogenate (carrageenan model); assay type: in vivo; conditions: doses of 20 and 40 mg/kg; compared to the vehicle control group
Description: (§3) The levels of inflammatory mediators (IL-1β, TNF-α, and PGE2) in rat paw tissue homogenate were measured using the following Kits: Rat TNF-α (Tumor Necrosis Factor Alpha) ELISA Kit from Elabscience® Company, Houston, TX, USA, Interleukin 1 Beta (IL-1b) Organism Species: Rattus norvegicus (Rat) from Cloud Clone Crop Company and Rat PGE2 (Prostaglandin E2) ELISA Kit from Fine test® company Hubei, China. In addition, oxidative stress parameters in rat paw tissue homogenate were measured using superoxide dismutase, glutathione peroxidase, and catalase Kits from the Biodiagnostic company, Birmingham, UK.
(§4) Rats were slaughtered, and their paw tissues were gathered and weighed five hours after the carrageenan was administered. The tissues underwent processing after being fixed in 10% formalin. Rat paw tissue was homogenized, and its oxidative stress indices (SOD, CAT, and GPx) as well as the levels of inflammatory mediators (IL-1β, TNF-α, and PGE2) were measured.

[4] = system: P. aeruginosa; assay: Antimicrobial screening, zone of inhibition; assay type: cell-based; conditions: Table 1
Description: The procedure was performed according to Stylianakis et al.. A comparison of the extract’s zone of inhibition to that of a reference antibiotic’s activity index was determined using the following equation:Activity index = (the inhibition zone of extract/the inhibition zone of the standard) × 100

[5] = system: IL-6 production in TNF-a-stimulated MG-63 cells; conditions: cited from earlier work
[6] = system: S. aureus; assay: Antimicrobial screening, zone of inhibition; assay type: cell-based; conditions: Table 1
Description: The procedure was performed according to […] et al.. A comparison of the extract's zone of inhibition to that of a reference antibiotic's activity index was determined using the following equation:Activity index = (the inhibition zone of extract/the inhibition zone of the standard) × 100

[7] = system: CAT; assay: CAT activity in rat paw tissue homogenate (carrageenan model); assay type: in vivo; conditions: for CAT (U/gm Tissue): paw tissue 5 h after carrageenan
Description: as §3, §4

[8] = Cytotoxic activity (MTT assay), normal cells; assay type: cell-based; conditions: human, WI-38 normal lung fibroblast cells; MTT; normal cells; read-out: In Vitro Cytotoxicity IC50 (µg/mL) WI-38
Description: as §1, §2

[9] = IC50 normal (WI-38)/IC50 cancer
[10] = 1 mg/mL, relative to ciprofloxacin

NC(CO)C(O)c1ccc2c(c1)OCO2 (centres unmarked) [Compound 1, 1,3-propanediol-2-amino-1-(3′,4′-methylenedioxyphenyl)]
IC50 ([1]; Homo sapiens, HepG2, MTT, read-out: In Vitro Cytotoxicity IC50 (µg/mL) HepG-2): 82.8 ± 4.1 µg/mL (≈ 392 µM)
Selectivity Index HepG2 [1, 9]: 0.75
IC50 ([2]; Homo sapiens, MCF7, MTT, read-out: In Vitro Cytotoxicity IC50 (µg/mL) MCF-7): 86.8 ± 3.9 µg/mL (≈ 411 µM)
Selectivity Index MCF-7 [2, 9]: 0.71
IL-1β level in paw tissue [3]: significant reduction
zone of inhibition at 1000 µg/mL ([4]; Pseudomonas aeruginosa, isolated compounds 1 mg/mL, read-out: P. aeruginosa Diameter of Inhibition Zone (mm)): 3.8 ± 0.2 mm
P. aeruginosa %Activity Index [4, 10]: 16.5%
inhibition of IL-6 production [5]: strong inhibitory
zone of inhibition at 1000 µg/mL ([6]; Staphylococcus aureus, isolated compounds 1 mg/mL, read-out: S. aureus Diameter of Inhibition Zone (mm)): 6.9 ± 0.1 mm
S. aureus %Activity Index [6, 10]: 28.9%
CAT activity restored ([7]; 40 mg/kg, compared to the control group): 72.08%
CAT (U/gm Tissue) ([7]; 20 mg/kg): 1.50 ± 0.19 U/gm Tissue
CAT (U/gm Tissue) ([7]; 40 mg/kg): 2.04 ± 0.26 U/gm Tissue
IC50 [8]: 61.7 ± 3.4 µg/mL (≈ 292 µM)
